According to patent US20230272016A1, “PEPTIDES FOR IMMUNOTHERAPY” (Second Genome, Inc., priority 2020, published 2023):

Test system: human T cells
Assay: Human T cell activation assay (anti-CD3 plus peptide, cytokine secretion)
Format: cell-based
Procedure: FIGS. 11 and 12 show 150 peptide variants of the SG-3-0020 1-29 aa N-terminal+middle region, derived from a combinatorial phage display library, were tested for activation potential of human T cells. […] Increase in cytokine secretion was concordant in 3 donors.
For example, PBMCs were obtained from individual human donors.
T-cell activation was also determined as described previously (see above and International Application No. PCT/US2020/012431). […] Separate N-, MID, and C-terminal fragments lose activity. The data support that both N- and middle region are minimally required for binding and activation to T cells.

[1] = Table 11, 150 combinatorial library variants of SEQ ID NO:1
[2] = Table 10, combinatorial library variants of SEQ ID NO:1

Substance	mean_ES_IFN-γ [1]	mean_ES_IFN-γ [2]
FASAAKGKTHDHWGSGRYRPPPWHDWRGS [SEQ ID NO: 244]	0.9882	–
FASAAKGKTHDHYPGGRMRPPPWHDWRFS [SEQ ID NO: 254]	0.9426	–
FASAAKGKTHDHYPSGRYRPPPWHDWRAS [SEQ ID NO: 298]	0.6625	–
FASAAKGKTHDHYWSGRYRPPPWHDWRAS [SEQ ID NO: 33]	1.036	1.036
FASGAKGKTHDHNWGGRYRDPGWHDWRAS [SEQ ID NO: 281]	0.7548	–
FASGAKGKTHDHYPSGRHRPPPWHDWRAS [SEQ ID NO: 316]	0.5231	–
FGSAAKGKTHDHWPSGRHRDPGWHDWRFS [SEQ ID NO: 23]	1.129	1.129
FGSAAKGKTHDHYWSGRMRPPPWHDWRGS [SEQ ID NO: 34]	1.028	1.028
FGSGAKGKTHDHWGGGRHRPPPWHDWRGS [SEQ ID NO: 6]	1.321	1.321
FGSGAKGKTHDHYPSGRMRPPPWHDWRVR [SEQ ID NO: 7]	1.319	1.319
FLSAAKGKTHDHNWGGRMRPPPWHDWRFS [SEQ ID NO: 255]	0.935	–
FLSGAKGKTHDHYPSGRYRPPPWHDWRAR [SEQ ID NO: 15]	1.193	1.193
FPSGAKTKWHDHNPSGRMRDPPWHDWRFS [SEQ ID NO: 306]	0.6024	–
FPSGAKTKWHDHNPSGRMRDPPWHDWRFSa [SEQ ID NO: 273]	0.8203	–
FQSTAKGKTHDHWPSGRMRPPPWHDWRAS [SEQ ID NO: 267]	0.8487	–
FSSAAKGKWHDHWPGGRYRDPPWHDWRVS [SEQ ID NO: 14]	1.215	1.215
FSSAAKTKWHDHYGSGRYRPPPWHDWRFS [SEQ ID NO: 355]	−0.4086	–
FVSAAKGKTHDHYPSGRYRPPPWHDWRAR [SEQ ID NO: 25]	1.088	1.088
FVSGAKGKWHDHWPSGRWRDPPWHDWRAS [SEQ ID NO: 10]	1.26	1.26
FVSTAKGKTHDHNWSGRMRPPPWHDWRGR [SEQ ID NO: 248]	0.9668	–
MASAAKGKTHDHYPGGRMRPPPWHDWRAS [SEQ ID NO: 252]	0.9483	–
MASAAKGKTHDHYPSGRMRPPPWHDWRFS [SEQ ID NO: 263]	0.8848	–

Substance	mean_ES_IFN-γ [1]	mean_ES_IFN-γ [2]
MASAAKGKWHDHNPSGRHRDPGWHDWWGS [SEQ ID NO: 288]	0.7207	–
MASAAKGKWHDHWGSGRHRPPPWHDWRVS [SEQ ID NO: 11]	1.237	1.237
MASAAKTKWHDHYPSGRMRPPPWHDWRAR [SEQ ID NO: 27]	1.075	1.075
MASGAKGKTHDHNWSGRMRPPPWHDWRGR [SEQ ID NO: 245]	0.9801	–
MASGAKGKTHDHYPGGRMRPPPWHDWRAR [SEQ ID NO: 287]	0.7208	–
MASGAKGKWHDHYGGGRMRDPGWHDWRFS [SEQ ID NO: 342]	0.2325	–
MASTAKGKTHDHWPGGRMRPPPWHDWRGS [SEQ ID NO: 320]	0.5063	–
MASTAKGKTHDHYGGGRMRPPPWHDWRVR [SEQ ID NO: 314]	0.5458	–
MGSAAKGKTHDHYPSGRMRPPPWHDWRGS [SEQ ID NO: 349]	−0.09755	–
MGSAAKGKWHDHNGSGRMRPPPWHDWRAR [SEQ ID NO: 279]	0.7782	–
MGSAAKGKWHDHYGSGRMRPPPWHDWRVR [SEQ ID NO: 262]	0.8865	–
MGSAAKGKWHDHYPGGRHRDPPWHDWRAS [SEQ ID NO: 319]	0.5086	–
MGSAAKTKWHDHYGGGRMRPPPWHDWRAR [SEQ ID NO: 247]	0.9744	–
MGSAAKTKWHDHYPGGRMRPPPWHDWRFS [SEQ ID NO: 337]	0.2836	–
MGSGAKGKTHDHNWGGRHRDPGWHDWWVS [SEQ ID NO: 285]	0.7319	–
MGSGAKGKTHDHWPSGRMRPPPWHDWRVS [SEQ ID NO: 268]	0.8466	–
MGSGAKTKTHDHYPGGRYRPPPWHDWRVS [SEQ ID NO: 276]	0.8105	–
MGSGAKTKWHDHWPSGRMRPPPWHDWRFS [SEQ ID NO: 284]	0.7374	–
MLSAAKGKTHDHYPSGRYRPPPWHDWRAR [SEQ ID NO: 269]	0.8464	–
MLSAAKTKTHDHWGSGRMRDPPWHDWRVS [SEQ ID NO: 351]	−0.1331	–
MLSGAKGKTHDHYWGGRMRPPPWHDWRGS [SEQ ID NO: 22]	1.134	1.134
MLSGAKTKTHDHNPSGRMRDPPWHDWRVR [SEQ ID NO: 293]	0.7047	–

Substance	mean_ES_IFN-γ [1]	mean_ES_IFN-γ [2]
MLSTAKGKTHDHWGGGRMRPPPWHDWRFS [SEQ ID NO: 2]	1.408	1.408
MLSTAKGKTHDHYGGGRMRPPPWHDWRFS [SEQ ID NO: 249]	0.9561	–
MLSTAKGKTHDHYWGGRMRPPPWHDWRFS [SEQ ID NO: 292]	0.7049	–
MPSAAKGKTHDHNGGGRMRPPPWHDWRFS [SEQ ID NO: 311]	0.5631	–
MPSAAKGKTHDHYPSGRMRPPPWHDWRGR [SEQ ID NO: 333]	0.3234	–
MPSAAKGKTHDHYWSGRMRPPPWHDWRVS [SEQ ID NO: 246]	0.9753	–
MPSAAKGKWHDHYGSGRYRPPPWHDWRVR [SEQ ID NO: 326]	0.43	–
MPSAAKGKWHDHYPGGRMRDPKWHDWRFS [SEQ ID NO: 8]	1.282	1.282
MPSAAKGKWHDHYPSGRMRPPPWHDWRAR [SEQ ID NO: 12]	1.216	1.216
MPSAAKTKWHDHNWSGRMRPPPWHDWRAR [SEQ ID NO: 270]	0.8446	–
MPSAAKTKWHDHYPGGRMRPPPWHDWRGR [SEQ ID NO: 16]	1.186	1.186
MPSAAKTKWHDHYPSGRMRPPPWHDWRGR [SEQ ID NO: 28]	1.071	1.071
MPSGAKGKTHDHYGGGRMRPPPWHDWRFS [SEQ ID NO: 13]	1.216	1.216
MPSGAKGKWHDHYGGGRMRDPGWHDWRGS [SEQ ID NO: 317]	0.5191	–
MPSTAKGKWHDHNPSGRMRPPPWHDWRGR [SEQ ID NO: 277]	0.7934	–
MSSAAKGKTHDHNWSGRYRPPPWHDWRVR [SEQ ID NO: 242]	0.9993	–
MSSGAKGKWHDHNWGGRMRDPGWHDWWGS [SEQ ID NO: 301]	0.6348	–
MSSGAKGKWHDHYGSGRHRPPPWHDWRVR [SEQ ID NO: 243]	0.9926	–
MSSGAKGKWHDHYPSGRMRPPPWHDWRFS [SEQ ID NO: 3]	1.384	1.384
MSSGAKTKTHDHYPSGRMRPPPWHDWRAR [SEQ ID NO: 303]	0.6184	–
MVSAAKTKTHDHNGGGRMRPPPWHDWRFS [SEQ ID NO: 258]	0.9135	–
MVSTAKGKTHDHYGGGRYRPPPWHDWRAR [SEQ ID NO: 266]	0.8498	–
